Data reported in patent US10028956B2, “Methods of treating various cancers using an AXL/cMET inhibitor in combination with other agents” (Ignyta, Inc., priority 2013, dated 2018).

Experiments:
AXL = target: T1, AXL (Homo sapiens, UniProt P30530); assay: Inhibition of AXL phosphorylation in NCI-H1299 NSCL xenografts (PK/PD); format: in vivo, mice; design: endogenous in cells; host or cells: NCI-H1299 human NSCLC cells (culture; subcutaneous xenograft in mice)
T1 sequence (P30530 26-894): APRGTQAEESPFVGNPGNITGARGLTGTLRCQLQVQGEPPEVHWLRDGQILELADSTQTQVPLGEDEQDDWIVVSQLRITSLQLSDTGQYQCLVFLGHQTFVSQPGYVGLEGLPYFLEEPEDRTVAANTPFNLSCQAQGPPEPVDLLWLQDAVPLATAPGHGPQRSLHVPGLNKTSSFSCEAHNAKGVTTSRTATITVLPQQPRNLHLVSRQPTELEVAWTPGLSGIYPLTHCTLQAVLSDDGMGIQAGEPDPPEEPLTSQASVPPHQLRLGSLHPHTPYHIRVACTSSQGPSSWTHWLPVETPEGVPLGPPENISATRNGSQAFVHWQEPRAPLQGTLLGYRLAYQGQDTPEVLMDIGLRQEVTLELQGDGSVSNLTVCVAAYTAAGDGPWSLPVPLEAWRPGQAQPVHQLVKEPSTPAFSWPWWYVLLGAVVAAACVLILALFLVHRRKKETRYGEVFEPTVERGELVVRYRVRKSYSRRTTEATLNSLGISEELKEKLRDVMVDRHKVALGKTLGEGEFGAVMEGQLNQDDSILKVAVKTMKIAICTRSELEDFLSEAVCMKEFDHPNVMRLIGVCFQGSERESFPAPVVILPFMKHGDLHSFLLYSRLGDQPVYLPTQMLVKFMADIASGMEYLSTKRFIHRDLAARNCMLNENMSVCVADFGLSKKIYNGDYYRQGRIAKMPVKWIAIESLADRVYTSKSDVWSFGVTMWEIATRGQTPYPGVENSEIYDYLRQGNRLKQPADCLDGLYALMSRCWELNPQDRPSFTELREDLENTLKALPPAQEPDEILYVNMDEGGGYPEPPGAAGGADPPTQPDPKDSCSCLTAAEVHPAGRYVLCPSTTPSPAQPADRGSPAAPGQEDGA
Text: Female Nu/Nu mice (6-8 weeks, Charles River Laboratory, Wilmington, Mass.) were maintained 5/cage in microisolator units on a standard laboratory diet (Teklad Labchow, Harlan Teklad, Madison, Wis.). Animals were housed under humidity- and temperature-controlled conditions and the light/dark cycle was set at 12-hour intervals. Mice were quarantined at least 1 week prior to experimental manipulation. Experiments were approved (Protocol 03-023) by the Institutional Animal Care and Use Committee of Teva Pharmaceuticals Inc
Briefly, NCI-H1299 NSCL cells (for AXL studies) or GTL-16 gastric carcinoma cells (for c-Met studies) were collected and resuspended in DMEM medium at density of 5×10^7/mL and an aliquot (100 μL) of the cell suspension (5×10^6 cells) was inoculated subcutaneously to the left flank of each mouse with a 23 g needle. […] At indicated time points post dosing, the mice (3 mice at each time point) were sacrificed by decapitation and blood was collected in 1.5 mL microcentrifuge tubes containing 20 μL of heparin sodium (10,000 unit/mL in H2O, Cat^#0210193191, MP Biomedical, Solon, Ohio) and left on ice briefly. The tubes were centrifuged at 20,817×g (Eppendorf Centrifuge 5417R with a FA45-30-11 rotor) for 8 minutes at 4° C. and the plasma was collected and transferred to 1.5 mL microfuge tubes, which were then stored at −80° C. The tumors were excised and weighed, cut into small pieces with a scalpel and placed into a round-bottom 14 mL tube (Cat^#352059, Becton Dickinson, Franklin, N.J.) on ice. Two volumes of FRAK lysis buffer without detergent [10 mM Tris, pH 7.5, 50 mM sodium chloride, 20 mM sodium fluoride, 2 mM sodium pyrophosphate, 0.1% BSA, plus freshly prepared 1 mM activated sodium vanadate, 4 mM DTT, 1 mM PMSF and the protease inhibitor cocktail III (1:100 dilution, Cat^#539134, Calbiochem, La Jolla, Calif.)] were added to 1 volume of tumor (eg, 500 μL FRAK lysis buffer were added to 250 mg tissue). […] The compound levels in both plasma and tumor lysates were measured by LC-MS/MS. […]

c-Met = c-Met (Homo sapiens, UniProt P08581); assay: Cellular c-Met inhibition in GTL-16 cells; format: cell-based; design: endogenous in cells; host or cells: GTL-16 human gastric carcinoma cells
c-Met, sequence (P08581 25-1390): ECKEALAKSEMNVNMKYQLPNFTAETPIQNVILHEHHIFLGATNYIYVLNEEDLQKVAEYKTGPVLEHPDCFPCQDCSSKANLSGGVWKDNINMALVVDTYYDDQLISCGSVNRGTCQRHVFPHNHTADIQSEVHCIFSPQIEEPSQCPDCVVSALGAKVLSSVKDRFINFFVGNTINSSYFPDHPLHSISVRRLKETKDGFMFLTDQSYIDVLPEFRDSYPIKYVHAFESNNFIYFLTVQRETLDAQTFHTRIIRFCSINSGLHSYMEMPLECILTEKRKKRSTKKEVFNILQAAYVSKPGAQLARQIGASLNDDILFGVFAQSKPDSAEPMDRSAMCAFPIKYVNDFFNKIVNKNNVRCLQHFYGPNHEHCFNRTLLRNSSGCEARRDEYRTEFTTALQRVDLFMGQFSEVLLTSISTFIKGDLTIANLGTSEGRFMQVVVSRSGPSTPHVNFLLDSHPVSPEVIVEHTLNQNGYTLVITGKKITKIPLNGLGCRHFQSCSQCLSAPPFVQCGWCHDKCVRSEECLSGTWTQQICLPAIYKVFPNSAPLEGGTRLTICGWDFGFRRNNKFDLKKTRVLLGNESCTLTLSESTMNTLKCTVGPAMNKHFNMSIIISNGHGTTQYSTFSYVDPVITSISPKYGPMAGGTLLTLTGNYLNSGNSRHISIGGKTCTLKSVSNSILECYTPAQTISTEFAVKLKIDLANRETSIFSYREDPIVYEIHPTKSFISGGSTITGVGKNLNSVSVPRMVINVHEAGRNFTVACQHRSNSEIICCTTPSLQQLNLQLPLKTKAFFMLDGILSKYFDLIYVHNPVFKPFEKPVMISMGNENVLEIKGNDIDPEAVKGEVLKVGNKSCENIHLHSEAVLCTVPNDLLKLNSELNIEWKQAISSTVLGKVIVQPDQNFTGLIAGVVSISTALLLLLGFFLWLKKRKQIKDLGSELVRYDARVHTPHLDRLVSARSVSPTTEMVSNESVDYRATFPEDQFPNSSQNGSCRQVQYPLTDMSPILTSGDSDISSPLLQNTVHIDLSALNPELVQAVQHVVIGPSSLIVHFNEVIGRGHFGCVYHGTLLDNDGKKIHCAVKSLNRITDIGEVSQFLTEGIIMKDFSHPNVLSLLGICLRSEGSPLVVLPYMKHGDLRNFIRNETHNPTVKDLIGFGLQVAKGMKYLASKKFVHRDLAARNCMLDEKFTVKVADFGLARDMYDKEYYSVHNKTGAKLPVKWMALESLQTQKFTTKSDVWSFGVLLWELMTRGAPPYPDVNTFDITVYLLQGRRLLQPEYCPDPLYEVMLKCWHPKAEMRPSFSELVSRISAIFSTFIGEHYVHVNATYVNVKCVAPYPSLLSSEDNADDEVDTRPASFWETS

## COc1cc2nccc(Oc3ccc(NC(=O)c4cn(C(C)C)c(=O)n(-c5ccc(F)cc5)c4=O)cc3F)c2cc1OC [CEP-40783, 3-(4-Fluorophenyl)-1-isopropyl-2,4-dioxo-1,2,3,4-tetrahydropyrimidine-5-carboxylic acid [4-(6,7-dimethoxyquinolin-4-yloxy)-3-fluorophenyl]-amide]
AXL; 0.3 mg/kg, 6 h post dose
  inhibition of AXL phosphorylation (target inhibition): ~80%
AXL; 1 mg/kg, between 6-24 h
  inhibition of AXL phosphorylation (target inhibition): > 90%
AXL; 10 mg/kg po, up to 48 h post dosing
  inhibition of AXL phosphorylation: complete AXL inhibition
c-Met
  IC50: 6 nM
